Some test systems named below: Candida glabrata 090902; Enterococcus faecium; Acinetobacter baumannii; Streptococcus pyogenes; Salmonella typhimurium; Klebsiella pneumoniae; Pseudomonas aeruginosa; Staphylococcus aureus; Proteus mirabilis; Nocardia asteroides; Candida albicans; Candida tropicalis; Proteus vulgaris; Escherichia coli 091335; Aeromonas sobria; Klebsiella oxytoca.
Holding throughout (experiment): ≥ marks a high value that may be exact or a test limit, other limits are often not marked, values filed in µg/mL are converted to µM
Assay [1] has as its system Pseudomonas aeruginosa CGMCC 1.50.
Assay [2] concerns Escherichia coli ATCC 25922.
Assay [3] deals with Nocardia asteroides 201118.
In assay [4] the test system is Klebsiella pneumoniae 08040724.
Assay [5] relates to Enterococcus faecalis 981.
The subject of assay [6] is Staphylococcus aureus ATCC 25923.
Assay [7] has as its system Pseudomonas aeruginosa PA14.
In assay [8] the test system is Pseudomonas aeruginosa 547.
Assay [9] concerns Staphylococcus aureus ATCC 29213.
Assay [10] has as its system Pseudomonas aeruginosa ATCC 27853.
Assay [11] concerns Escherichia coli O18:K1:H7.
The test system of assay [12] is Listeria monocytogenes 10403s.
Assay [13] deals with Stenotrophomonas maltophilia.
The test system of assay [14] is Streptococcus pneumoniae ATCC 49619.
The test system of assay [15] is Burkholderia cepacia ATCC 25416.
For assay [16], the system named is Serratia marcescens ATCC 8100.
In assay [17] the test system is Klebsiella pneumoniae ATCC 27736.
Assay [18] deals with Acinetobacter baumannii ATCC 19606.
Assay [19] deals with Staphylococcus aureus ATCC 6538.
Assay [20] relates to Bacillus cereus ATCC 10876.
In assay [21] the test system is Pseudomonas aeruginosa 091412.
Assay [22] has as its system Pseudomonas aeruginosa 091411.
In assay [23] the test system is Staphylococcus haemolyticus.
The test system of assay [24] is Cutibacterium acnes ATCC 11827.
For assay [25], the system named is Enterococcus faecium 091299.
Assay [26] relates to Streptococcus equi subsp. zooepidemicus ATCC 43079.
Assay [27] concerns Enterococcus faecalis ATCC 29212.
Assay [28] relates to Staphylococcus aureus ATCC 2592.
Assay [29] concerns Streptococcus agalactiae ATCC 27956.
The test system of assay [30] is Streptococcus dysgalactiae subsp. dysgalactiae ATCC 27957.

Among the data in DBAASP are MIC values, retold here.

Values after ≈ are worked out from the molar mass of the structure shown. Values joined by “and” are separate entries in the source; they are usually repeats but may differ in a detail not shown here. Equal entries are not always repeated.

As for `CC[C@H](C)[C@H](NC(=O)[C@H](C)NC(=O)[C@@H]1CCCN1C(=O)[C@H](CC(C)C)NC(=O)[C@@H](N)Cc1ccccc1)C(=O)N[C@H](C(=O)NCC(=O)N[C@@H](CCSC)C(=O)N[C@@H](C)C(=O)N[C@@H](C)C(=O)N[C@@H](CCCCN)C(=O)N[C@H](C(=O)N[C@@H](CC(C)C)C(=O)N1CCC[C@H]1C(=O)N[C@@H](C)C(=O)N[C@@H](Cc1ccccc1)C(=O)N[C@@H](CC(C)C)C(=O)N[C@H]1CSSC[C@@H](C(=O)O)NC(=O)[C@H](CCCCN)NC(=O)[C@H](CCCCN)NC(=O)[C@H]([C@@H](C)O)NC(=O)[C@H]([C@@H](C)CC)NC(=O)[C@H](CCCCN)NC1=O)C(C)C)[C@@H](C)CC` [FLPAIIGMAAKVLPAFLCKITKKC], the MIC (as a rule, the least concentration at which growth counts as inhibited) in assay [1] was at least 75 µM; in [2], 37.5 µM (≈ 96.6 µg/mL); in assay [3] it was 1.2 µM (≈ 3.09 µg/mL); in assay [4] it was at least 75 µM; in the assay on Candida glabrata 090902, at least 37.5 µM; in assay [5], 9.4 µM (≈ 24.2 µg/mL). Further, in assay [6], the MIC stood at 4.7 µM (≈ 12.1 µg/mL).
With `CSCC[C@@H](NC(=O)[C@@H](Cc1c[nH]c2ccccc12)NC(=O)CNC(=O)CNC(=O)[C@@H](CCCN=C(N)N)NC(=O)[C@@H](CCCN=C(N)N)NC(=O)[C@@H](CCCN=C(N)N)NC(=O)[C@@H](CCC(N)=O)NC(=O)[C@@H](CCCN=C(N)N)NC(=O)[C@@H](CCCN=C(N)N)NC(=O)[C@@H](CCCCN)NC(=O)[C@@H](CCCCN)NC(=O)[C@@H](CCCN=C(N)N)NC(=O)CN)C(=O)N[C@H](Cc1c[nH]c2ccccc12)C(=O)N[C@@H](C(=O)N[C@@H](C(=O)N[C@H](CC(N)=O)C(=O)N[C@H](CC(C)C)C(=O)N[C@H](CCCN=C(N)N)C(=O)N[C@@H](C(=O)N[C@H](CC(=O)O)C(=O)O)[C@H](C)O)[C@H](C)O)C(C)C` [GRKKRRQRRRGGWMWVTNLRTD], the MIC in assay [7] was 11.4 µM (≈ 32 µg/mL); against Enterococcus faecium, 22.7 µM (≈ 64 µg/mL); in assay [8], at least 45.5 µM; in [9] it was 45.5 µM (≈ 128 µg/mL); in assay [10], 22.7 µM (≈ 64 µg/mL); in assay [11], 22.7 µM (≈ 64 µg/mL). Further, the MIC in the assay on Acinetobacter baumannii was 5.69 µM (≈ 16 µg/mL); against Streptococcus pyogenes, 2.84 µM (≈ 8 µg/mL); in assay [2], 11.4 µM (≈ 32 µg/mL); in assay [12], at least 45.5 µM; in the assay with Salmonella typhimurium, 22.7 µM (≈ 64 µg/mL); in [13], 5.69 µM (≈ 16 µg/mL). Also, the MIC against Klebsiella pneumoniae was over 91 µM; in assay [14], 22.7 µM (≈ 64 µg/mL); in assay [15] it was at least 91 µM; in the assay on Pseudomonas aeruginosa, over 45.5 µM; in [16], at least 91 µM; in the assay on Staphylococcus aureus, 45.5 µM (≈ 128 µg/mL). The figures for the MIC in [17] and in assay [18] were at least 91 µM and 2.84 µM (≈ 8 µg/mL), respectively.
Take `CC[C@H](C)[C@H](NC(=O)[C@H](CCSC)NC(=O)[C@H](CC(C)C)NC(=O)[C@H](Cc1ccccc1)NC(=O)[C@H](CCC(N)=O)NC(=O)[C@H](Cc1ccc(O)cc1)NC(=O)[C@H](CCCN=C(N)N)NC(=O)[C@@H](NC(=O)[C@@H](NC(=O)[C@@H](NC(=O)[C@H](CO)NC(=O)CNC(=O)[C@H](CCCN=C(N)N)NC(=O)[C@H](CCCN=C(N)N)NC(=O)[C@@H](N)CCCCN)C(C)C)[C@@H](C)O)[C@@H](C)O)C(=O)N[C@@H](Cc1cnc[nH]1)C(=O)N[C@@H](CC(C)C)C(=O)N[C@@H](CC(C)C)C(=O)N[C@@H](CCCN=C(N)N)C(=O)N1CCC[C@H]1C(=O)N[C@@H](CCCCN)C(=O)N[C@@H](CCCCN)C(=O)N[C@@H](CC(C)C)C(=O)N[C@@H](Cc1ccccc1)C(=O)N[C@@H](C)C(=O)O` [KRRGSVTTRYQFLMIHLLRPKKLFA]: the MIC in the assay on Proteus mirabilis is at least 32.7 µM; in [19], 13.4 µM (≈ 41 µg/mL); in the assay with Nocardia asteroides it was 0.392 µM (≈ 1.2 µg/mL); in the assay on Candida albicans it was 3.07 µM (≈ 9.4 µg/mL); in assay [20] it was 13.1 µM (≈ 40.1 µg/mL); against Candida tropicalis, at least 32.7 µM. For the same compound, the MIC in assay [21] is at least 32.7 µM; in assay [22], 6.14 µM (≈ 18.8 µg/mL); in assay [23] it was 0.196 µM (≈ 0.6 µg/mL); in assay [24] it was 1.54 µM (≈ 4.7 µg/mL); in [2], 2.9 µM (≈ 8.88 µg/mL); against Proteus vulgaris, at least 32.7 µM. Also, the MIC with Escherichia coli 091335 was determined as 24.5 µM (≈ 75 µg/mL); in [25], 3.07 µM (≈ 9.4 µg/mL); in [26], 13.1 µM (≈ 40.1 µg/mL); in assay [27], 9.8 µM (≈ 30 µg/mL); in assay [13], 3.07 µM (≈ 9.4 µg/mL); in the assay on Aeromonas sobria, 3.07 µM (≈ 9.4 µg/mL). In addition, the minimum inhibitory concentration (MIC) was at least 32.7 µM with Candida glabrata 090902; 0.196 µM (≈ 0.6 µg/mL) in assay [28]; over 32.7 µM in the assay on Klebsiella pneumoniae; 13.1 µM (≈ 40.1 µg/mL) in [29]; 0.392 µM and > 0.196 µM against Staphylococcus aureus; 13.1 µM (≈ 40.1 µg/mL) in assay [30]. The compound further returned an MIC in the assay on Klebsiella oxytoca of at least 32.7 µM.
